The source of these data is patent publication US20180371044A1, “PEPTIDOMIMETIC MACROCYCLES” (Aileron Therapeutics, Inc., priority 2015, published 2018).

pEC50: −log10 of the molar value. Where a SMILES comes first, the peptide text is derived from it. Bridges are numbered along the chain shown (N, C = ends). [ ]: non-standard residue; d: D form. NMeY = CN[C@@H](Cc1ccc(O)cc1)C(=O)O; S5 = C=CCCC[C@](C)(N)C(=O)O; Nle = CCCC[C@H](N)C(=O)O A value given as a limit tells only on which side of the number the result lay.

Series [1] has as its target T1, VIPR1 (Vasointestinal Peptide Receptor 1) (Homo sapiens, UniProt P32241).
T1 construct: host or cells: CHO-K1 (cAMP Hunter eXpress VIPR1 CHO-K1 GPCR assay kit)
T1 sequence (P32241 31-457): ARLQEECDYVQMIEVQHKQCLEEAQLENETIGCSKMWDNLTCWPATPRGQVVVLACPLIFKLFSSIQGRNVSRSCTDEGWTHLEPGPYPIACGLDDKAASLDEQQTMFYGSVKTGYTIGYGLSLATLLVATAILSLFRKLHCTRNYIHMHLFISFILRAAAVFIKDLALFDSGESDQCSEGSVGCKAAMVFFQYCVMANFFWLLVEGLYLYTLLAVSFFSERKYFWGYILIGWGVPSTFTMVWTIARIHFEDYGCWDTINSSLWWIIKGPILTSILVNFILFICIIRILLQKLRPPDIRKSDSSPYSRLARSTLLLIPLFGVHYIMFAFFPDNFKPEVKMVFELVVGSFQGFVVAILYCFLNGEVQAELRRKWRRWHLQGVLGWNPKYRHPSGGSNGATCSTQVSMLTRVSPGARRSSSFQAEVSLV
The series is described as follows: DiscoverX cAMP Hunter eXpress VIPR1 CHO-K1 GPCR assay. The series is classed as cell-based. The following applies: VIPR1 CHO-K1 cells. An excerpt: DiscoverX cAmP Hunter eXpress VIPRI CHO-K1 GPCR and GHRHR CHO-K1 GPCR assays kits were used. The DiscoverX kits contain naturally coupled GPCR cell lines designed to detect GPCR signaling through second messenger activation. This signaling involves a membrane bound enzyme called adenylate cyclase. […] receptors modulate cAMP by either inhibiting or stimulating adenylate cyclase, respectively. The DiscoverX cell lines included in the kits utilize the natural coupling status of the GPCR to monitor activation of […] receptors. Following ligand stimulation, the functional status of the GPCR is monitored by measuring cellular cAMP levels using a homogeneous, gain of signal competitive immunoassay based on Enzyme Fragment Complementation (EFC). The amount of EFC is measured by analysis with a fluorescent plate reader.
On the day before the assay, the DiscoverX cell lines were defrosted, plated into 384 well plates and allowed to incubate overnight. All the samples were diluted to 2 mM using 100% DMSO. The vials were sonicated and centrifuged to assure all peptides went into solution. The final volumes were small, 80-200 μl. An 80% purity and peptide content was assumed for all samples and dilutions were based on the molecular weights. On the day of the assay, the samples were diluted to 200 μM in water and then to 4 μM in DiscoverX assay buffer (supplemented with 0.1% BSA). Serial dilutions were performed on assay day, 16 dilutions from 1000 nM were run side by side in duplicate for each peptide for study. The assays were performed in the 384 well plates with the assistance of a CyBio Bi-Well 384 channel liquid handling robot. The samples were analyzed on a Tecan Ultra Evolution plate reader according to DiscoverX guidelines. The EC50 values were determined using GraphPad Prism software. The EC50 value is defined as the concentration of agonist that provokes a response halfway between the baseline and maximum response.
DiscoverX™ cAmP Hunter eXpress VIPR1 CHO-K1 GPCR and GHRHR CHO-K1 GPCR assay kits were used. On the day before the assay, the DiscoverX™ cell lines were defrosted, plated into 384 well plates and allowed to incubate overnight. All the samples were diluted to 2 mM using 100% DMSO. The vials were sonicated and centrifuged to assure all peptides went into solution. The final volumes were small, 80-200 μl. An 80% purity and peptide content was assumed for all samples and dilutions were based on the molecular weights. On the day of the assay, the samples were diluted to 200 μM in water and then to 4 μM in DiscoverX™ assay buffer (supplemented with 0.1% BSA). Serial dilutions were performed on assay day, 16 dilutions from 1000 nM were run side by side in duplicate for each peptide for study. The assays were performed in the 384 well plates with the assistance of a CyBio™ Bi-Well 384 channel liquid handling robot. The samples were analyzed on a Tecan™ Ultra Evolution plate reader according to DiscoverX™ guidelines. The EC50 values were determined using GraphPad™ Prism software. The EC50 value is defined as the concentration of agonist that provokes a response halfway between the baseline and maximum response. (+=>25 nM; ++=>10-25 nM; +++=>1-10 nM; ++++=>0.1-1 nM; +++++=<0.1 nM). […]

The nature of the next series: Plasma compatibility. The series is classed as physicochemical. The procedure: The plasma compatibility of exemplary peptidomimetic macrocycles was also determined. Peptidomimetic macrocycles with a plasma compatability value (PC) that is greater than 0.1 were determined as being plasma compatible.
In the next series the target is T2, GHRHR (Homo sapiens, UniProt Q02643).
T2 construct: host or cells: CHO-K1 (cAMP Hunter eXpress GHRHR CHO-K1 GPCR assay kit)
T2 sequence (Q02643 23-423): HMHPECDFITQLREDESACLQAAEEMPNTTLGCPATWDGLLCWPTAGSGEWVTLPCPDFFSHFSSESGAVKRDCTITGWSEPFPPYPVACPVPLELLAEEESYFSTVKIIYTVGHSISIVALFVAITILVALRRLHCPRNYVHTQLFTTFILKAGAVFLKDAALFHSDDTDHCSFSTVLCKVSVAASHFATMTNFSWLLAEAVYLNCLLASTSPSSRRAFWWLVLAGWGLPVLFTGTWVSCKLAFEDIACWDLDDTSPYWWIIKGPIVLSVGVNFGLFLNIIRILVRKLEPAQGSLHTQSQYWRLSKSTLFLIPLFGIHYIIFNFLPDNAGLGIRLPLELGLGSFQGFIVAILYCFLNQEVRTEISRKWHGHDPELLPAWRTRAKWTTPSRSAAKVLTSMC
The series is described as follows: DiscoverX cAMP Hunter eXpress GHRHR CHO-K1 GPCR assay. The format is cell-based. The following applies: for Selectivity: EC50 in VIPR1 CHO-K1 cells divided by EC50 in GHRHR CHO-K1 cells; for pEC50: GHRHR CHO-K1 cells, cAMP.

Series [2] concerns the target T3, human GHRH receptor (hGHRHR) (Homo sapiens, UniProt Q02643).
T3 construct: expressed in transfected cells; host or cells: Human 293 cells
T3 sequence (Q02643 23-423): T2 sequence (Q02643 23-423)
The series can be described thus: GHRHR agonism measured by cAMP (HTRF) in human 293 cells expressing hGHRHR.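 Also: receptor expressed transiently or stably, cells stimulated in serum-free medium, EC50 from a non-linear dose-response fit, maximal response defined by reference GHRH stimulation.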 The format is cell-based. The note with it: 30 min at RT. (In general: TR-FRET usually uses a lanthanide donor and a delayed reading to cut background.)
Description: GHRH (1-29) and cross-linked peptidomimetic macrocycles were tested for agonism at the human GHRH receptor (hGHRHR) at various concentrations. Human 293 cells transiently or stably expressing hGHRHR were detached from cell culture flasks with versene (Life Technologies™), suspended in serum-free medium (50 k cells/assay point), and stimulated for 30 min at RT with GHRH (1-29) (Bachem™) or cross-linked peptidomimetic macrocycles. cAMP was quantified using an HTRF®-based assay (CisBio) and used according to the manufacturer's instructions. An EC50 for each agonist was calculated from a non-linear fit of response vs dose (GraphPad™ Prism). The maximum response was determined by stimulating with 10 μM GHRH (1-29). (+=>50 nm; ++=>25-50 nm; +++=>10-25 nm; ++++=>1-10 nm; +++++=≤1 nm).

The nature of series [3]: Solubility by measuring turbidity (OD600) in human plasma. The series is classed as physicochemical. As to the method:
In some embodiments, a peptidomimetic macrocycle can be prepared based on solubility of the polypeptide, for example if the prepared peptidomimetic macrocycle is determined to be soluble based on visual examination of the turbidity of a solution of the polypeptide. In some embodiments, an aqueous solubility of the peptidomimetic macrocycle is determined by evaluating the turbidity of a solution comprising the peptidomimetic macrocycle. In some embodiments, a plasma solubility of the peptidomimetic macrocycle is determined by evaluating the turbidity of a solution comprising the peptidomimetic macrocycle.
Increasing amounts of SP-3 and SP-133 were added to human plasma. The OD600 of each of the solutions was then measured.

Turning to `CCCC[C@H](NC(=O)[C@@H](NC(=O)[C@H](CC(=O)O)NC(=O)[C@H](CCC(N)=O)NC(=O)[C@H](CC(C)C)NC(=O)[C@H](C)NC(=O)[C@H](CCCCN)NC(=O)[C@H](CCCNC(=N)N)NC(=O)[C@H](C)NC(=O)[C@H](CO)NC(=O)[C@]1(C)CCCC=CCCC[C@](C)(NC(=O)[C@H](CCCCN)NC(=O)[C@H](CCCNC(=N)N)NC(=O)[C@H](Cc2ccc(O)cc2)NC(=O)[C@H](CO)NC(=O)[C@H](CCC(N)=O)NC(=O)[C@@H](NC(=O)[C@H](Cc2ccccc2)NC(=O)[C@@H](NC(=O)[C@H](C)NC(=O)[C@H](CC(=O)O)NC(=O)[C@@H](C)NC(=O)[C@H](Cc2ccc(O)cc2)NC)[C@@H](C)CC)[C@@H](C)O)C(=O)N[C@@H](CC(C)C)C(=O)N[C@@H](C)C(=O)N[C@@H](CCC(N)=O)C(=O)N1)[C@@H](C)CC)C(=O)N[C@@H](CO)C(=O)N[C@@H](CCCNC(=N)N)C(N)=O` [SP-69] (H-[NMeY][dA]DAIFTQSYRK[S5]LAQ[S5]SARKALQDI[Nle]SR-NH2; staple 13-17), the pEC50 (usually −log10 of the EC50, conventionally taken in molar units) in series [1] was 9.00 to 10.00. In “Plasma compatibility”, the “Plasma Compatability” value was determined as 1.6 mg/mL. For the same compound, on GHRHR, the Selectivity result is “+ (+=<5)” and the pEC50 was 9.00 to 10.00.
`CCCC[C@H](NC(=O)[C@@H](NC(=O)[C@]1(C)CCCC=CCCC[C@](C)(NC(=O)[C@H](CCCNC(=N)N)NC(=O)[C@H](C)NC(=O)[C@H](CO)NC(=O)[C@H](CC(C)C)NC(=O)[C@H](CCC(N)=O)NC(=O)CNC(=O)[C@H](CC(C)C)NC(=O)[C@@H](NC(=O)[C@H](CCCCN)NC(=O)[C@H](CCCNC(=N)N)NC(=O)[C@H](Cc2ccc(O)cc2)NC(=O)[C@H](CO)NC(=O)[C@]2(C)CCCC=CCCC[C@](C)(NC(=O)[C@H](CC(=O)O)NC(=O)[C@@H](C)NC(=O)[C@@H](N)Cc3ccc(O)cc3)C(=O)N[C@@H]([C@@H](C)CC)C(=O)N[C@@H](Cc3ccccc3)C(=O)N[C@@H]([C@@H](C)O)C(=O)N2)C(C)C)C(=O)N[C@@H](CC(C)C)C(=O)N[C@@H](CC(C)C)C(=O)N[C@@H](CCC(N)=O)C(=O)N1)[C@@H](C)CC)C(=O)N[C@@H](CO)C(=O)N[C@@H](CCCNC(=N)N)C(N)=O` [SP-3] (H-Y[dA]D[S5]IFT[S5]SYRKVLGQLSAR[S5]LLQ[S5]I[Nle]SR-NH2; staple 4-8, 21-25): the pEC50 in series [2] was 8.00 to 9.00; in series [1], 7.60 to 8.00; at GHRHR it was 9.00 to 10.00. Further, the “Plasma Compatability” value in the series “Plasma compatibility” was determined as 0.9 mg/mL. On GHRHR, the Selectivity result was “+++++ (+++++=>50)”. The OD600 in series [3] (7 mg/mL) was determined as 0.8; in series [3] (10 mg/mL), 1.0; in series [3] (12 mg/mL) it was 1.2; in series [3] (16 mg/mL) it was 1.2; in series [3] (21 mg/mL), 1.4; in series [3] (27 mg/mL), 1.6. Moreover, the OD600 was 1.6 in series [3] (35 mg/mL); 1.7 in series [3] (46 mg/mL); 1.8 in series [3] (59 mg/mL); 1.7 in series [3] (77 mg/mL); 1.5 in series [3] (100 mg/mL).
On to “SP-133: GHRH peptidomimetic macrocycle (YADAIFTASYRKALAQASARKALQDILSR; not fully specified; D-residues; non-natural residues; cyclised or stapled)”, for which the pEC50 in series [1] is below 7.60; with GHRHR, 8.00 to 9.00. In addition, the “Plasma Compatability” value in “Plasma compatibility” was above 10 mg/mL. For the same compound, the Selectivity entry in the series with GHRHR was “++ (++=>5-15)”. Besides, the OD600 in series [3] (7 mg/mL), in series [3] (10 mg/mL), in series [3] (12 mg/mL), in series [3] (16 mg/mL), in series [3] (21 mg/mL) and in series [3] (27 mg/mL) was 0.0 in each case. For the same compound, the OD600 in series [3] (35 mg/mL), in series [3] (46 mg/mL), in series [3] (59 mg/mL), in series [3] (77 mg/mL) and in series [3] (100 mg/mL) was 0.0 each time. Moreover, the turbidity entry in series [3] (up to 100 mg/mL) was “no turbidity”.
With `CCCC[C@H](NC(=O)[C@@H](NC(=O)[C@H](CC(=O)O)NC(=O)[C@H](CCC(N)=O)NC(=O)[C@H](CC(C)C)NC(=O)[C@H](C)NC(=O)[C@H](CCCCN)NC(=O)[C@H](CCCNC(=N)N)NC(=O)[C@H](C)NC(=O)[C@H](CO)NC(=O)[C@]1(C)CCCC=CCCC[C@](C)(NC(=O)[C@H](CCCCN)NC(=O)[C@H](CCCNC(=N)N)NC(=O)[C@H](Cc2ccc(O)cc2)NC(=O)[C@H](CO)NC(=O)[C@H](C)NC(=O)[C@@H](NC(=O)[C@H](Cc2ccccc2)NC(=O)[C@@H](NC(=O)[C@H](C)NC(=O)[C@H](CC(=O)O)NC(=O)[C@H](C)NC(=O)[C@H](Cc2ccc(O)cc2)NC)[C@@H](C)CC)[C@@H](C)O)C(=O)N[C@@H](CC(C)C)C(=O)N[C@@H](C)C(=O)N[C@@H](CCC(N)=O)C(=O)N1)[C@@H](C)CC)C(=O)N[C@@H](CO)C(=O)N[C@@H](CCCNC(=N)N)C(N)=O` [SP-12] (H-[NMeY]ADAIFTASYRK[S5]LAQ[S5]SARKALQDI[Nle]SR-NH2; staple 13-17), the pEC50 in series [2] was at least 9.00; in series [1], above 10.00; at GHRHR, above 10.00. Moreover, the “Plasma Compatability” value in the series “Plasma compatibility” is given as 1.6 mg/mL. The Selectivity result at GHRHR was “+ (+=<5)”.
